This is an account of results in PMC9673926, “Nucleotide binding as an allosteric regulatory mechanism for Akkermansia muciniphila β-N-acetylhexosaminidase Am2136” (Gut Microbes, 2022).

The target of one assay is T1, Am2136 WT (Akkermansia muciniphila, UniProt B2UPR7).
T1 construct: The coding region (residue Q20-L756) of Am2136 without signal peptide was based on UniProt; 6XHis (N); made in house; host or cells: E. coli BL21 (DE3)
Description: Enzyme activity assay (pNP-β-GlcNAc hydrolysis) regulated by nucleotides. The class given is biochemical.

The target of another assay is T2, Am2136 R256A (Akkermansia muciniphila, UniProt B2UPR7, R256A).
T2 sequence (B2UPR7 20-756 R256A): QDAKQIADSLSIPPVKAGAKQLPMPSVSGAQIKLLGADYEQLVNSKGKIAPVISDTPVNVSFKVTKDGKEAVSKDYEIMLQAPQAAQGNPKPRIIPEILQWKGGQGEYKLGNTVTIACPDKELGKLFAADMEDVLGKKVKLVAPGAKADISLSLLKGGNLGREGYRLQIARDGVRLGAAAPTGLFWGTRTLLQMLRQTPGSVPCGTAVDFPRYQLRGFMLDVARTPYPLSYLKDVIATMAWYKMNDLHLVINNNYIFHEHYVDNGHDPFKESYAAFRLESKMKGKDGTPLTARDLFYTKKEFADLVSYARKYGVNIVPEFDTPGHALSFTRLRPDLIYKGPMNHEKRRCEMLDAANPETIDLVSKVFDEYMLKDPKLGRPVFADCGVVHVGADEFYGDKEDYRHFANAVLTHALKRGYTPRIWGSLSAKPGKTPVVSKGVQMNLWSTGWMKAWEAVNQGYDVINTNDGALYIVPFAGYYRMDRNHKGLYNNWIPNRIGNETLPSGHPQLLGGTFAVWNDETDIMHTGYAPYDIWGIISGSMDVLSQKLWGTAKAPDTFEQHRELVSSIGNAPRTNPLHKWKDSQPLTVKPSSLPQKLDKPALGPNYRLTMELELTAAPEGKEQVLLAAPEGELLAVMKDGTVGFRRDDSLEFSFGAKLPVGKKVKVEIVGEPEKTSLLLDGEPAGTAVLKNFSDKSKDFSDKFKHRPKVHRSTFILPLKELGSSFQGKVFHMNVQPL
Description: GDP regulated enzyme activity assay, mutant. As to conditions: 1 mM GDP, substrate pNP-β-GlcNAc.

Another assay deals with T3, Am2136 E649A (Akkermansia muciniphila, UniProt B2UPR7, E649A).
T3 sequence (B2UPR7 20-756 E649A): T2 sequence (B2UPR7 20-756 R256A) with A237R, E630A
In words: GDP regulated enzyme activity assay, mutant. As to conditions: 1 mM GDP, substrate pNP-β-GlcNAc.

The next assay concerns the target T4, Am2136 Y327F+Y331F (Akkermansia muciniphila, UniProt B2UPR7, Y327F/Y331F).
T4 sequence (B2UPR7 20-756 Y327F/Y331F): T2 sequence (B2UPR7 20-756 R256A) with A237R, Y308F, Y312F
In words: GDP regulated enzyme activity assay, mutant. As to conditions: 1 mM GDP, substrate pNP-β-GlcNAc.

Changes are numbered by the printed parent chain.

T1 sequence (B2UPR7 20-756): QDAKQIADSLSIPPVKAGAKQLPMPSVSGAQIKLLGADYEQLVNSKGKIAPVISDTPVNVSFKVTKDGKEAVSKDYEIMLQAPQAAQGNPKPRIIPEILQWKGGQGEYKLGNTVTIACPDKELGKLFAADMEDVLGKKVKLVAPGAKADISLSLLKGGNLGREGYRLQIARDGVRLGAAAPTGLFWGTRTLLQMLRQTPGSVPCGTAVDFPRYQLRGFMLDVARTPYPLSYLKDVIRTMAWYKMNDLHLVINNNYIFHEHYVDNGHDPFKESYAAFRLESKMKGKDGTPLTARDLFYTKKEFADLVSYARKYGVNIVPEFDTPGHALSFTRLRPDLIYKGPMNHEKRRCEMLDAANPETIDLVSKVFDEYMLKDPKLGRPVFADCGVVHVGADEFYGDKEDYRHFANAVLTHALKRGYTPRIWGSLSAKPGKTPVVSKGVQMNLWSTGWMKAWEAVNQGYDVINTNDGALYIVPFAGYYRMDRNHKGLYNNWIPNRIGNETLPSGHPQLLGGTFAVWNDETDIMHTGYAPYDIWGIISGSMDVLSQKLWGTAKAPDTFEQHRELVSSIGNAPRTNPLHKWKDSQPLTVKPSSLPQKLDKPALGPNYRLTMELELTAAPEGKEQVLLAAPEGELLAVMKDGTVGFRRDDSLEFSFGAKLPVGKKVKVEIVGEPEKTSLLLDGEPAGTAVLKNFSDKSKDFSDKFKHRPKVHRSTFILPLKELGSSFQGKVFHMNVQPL

Regarding `Nc1nc2c(ncn2[C@@H]2O[C@H](COP(=O)(O)OP(=O)(O)O)[C@@H](O)[C@H]2O)c(=O)[nH]1` [GDP], the “maximal activation of Am2136” value at Am2136 WT (1 mM GDP) was “up to twofold”. For the same compound, the “effect on Am2136 hydrolysis activity” value on Am2136 WT (GDP 0–2.65 mM, substrate pNP-β-GlcNAc) is “concentration-dependent enhancement”. The Vmax is 442 ± 7 µmol/min at Am2136 WT (WT, 1 mM nucleotide, substrate pNP-β-GlcNAc, 37°C); 465 ± 15 µmol/min at Am2136 R256A; 453 ± 6 µmol/min on Am2136 E649A; 473 ± 6 µmol/min on Am2136 Y327F+Y331F.
